The results in this text go back to ChEMBL document CHEMBL1153676, “Muscarinic receptor probes based on amine congeners of pirenzepine and telenzepine” (Bioorg Med Chem Lett, 1992).

Test [1] addresses T1, Muscarinic acetylcholine receptor M1 (Rattus norvegicus) (UniProt P08482).
T1 sequence (whole entry): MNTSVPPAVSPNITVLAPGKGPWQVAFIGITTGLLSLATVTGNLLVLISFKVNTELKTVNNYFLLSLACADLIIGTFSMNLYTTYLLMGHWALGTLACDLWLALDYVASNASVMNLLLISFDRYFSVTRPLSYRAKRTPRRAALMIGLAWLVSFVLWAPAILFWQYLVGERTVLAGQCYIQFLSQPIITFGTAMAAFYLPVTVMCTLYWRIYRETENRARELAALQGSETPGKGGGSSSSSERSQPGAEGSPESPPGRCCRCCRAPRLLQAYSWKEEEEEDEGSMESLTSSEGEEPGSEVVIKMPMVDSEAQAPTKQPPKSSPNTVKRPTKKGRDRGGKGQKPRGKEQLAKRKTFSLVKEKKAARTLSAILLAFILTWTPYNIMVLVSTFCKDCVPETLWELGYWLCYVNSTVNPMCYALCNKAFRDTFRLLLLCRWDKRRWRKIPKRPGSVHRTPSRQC
The test can be described thus: Percent reduction in specific binding of 0.5 nM [3H]N-methylscopolamine (NMS) to rat forebrain membranes following a 30 min pre-incubation at concentration of 0.5 uM. The test is classed as cell membranes. Particulars: Membrane.

Test [2] addresses T2, Muscarinic acetylcholine receptor M1 (Rattus norvegicus, UniProt P08482).
T2 sequence (P08482 whole entry): T1 sequence (whole entry)
The test can be described thus: Inhibitory concentration was evaluated for irreversible inhibition at rat forebrain muscarinic receptor.

Test [3] concerns the target T3, Muscarinic acetylcholine receptor M2 (Rattus norvegicus, UniProt P10980).
T3 sequence (P10980 whole entry): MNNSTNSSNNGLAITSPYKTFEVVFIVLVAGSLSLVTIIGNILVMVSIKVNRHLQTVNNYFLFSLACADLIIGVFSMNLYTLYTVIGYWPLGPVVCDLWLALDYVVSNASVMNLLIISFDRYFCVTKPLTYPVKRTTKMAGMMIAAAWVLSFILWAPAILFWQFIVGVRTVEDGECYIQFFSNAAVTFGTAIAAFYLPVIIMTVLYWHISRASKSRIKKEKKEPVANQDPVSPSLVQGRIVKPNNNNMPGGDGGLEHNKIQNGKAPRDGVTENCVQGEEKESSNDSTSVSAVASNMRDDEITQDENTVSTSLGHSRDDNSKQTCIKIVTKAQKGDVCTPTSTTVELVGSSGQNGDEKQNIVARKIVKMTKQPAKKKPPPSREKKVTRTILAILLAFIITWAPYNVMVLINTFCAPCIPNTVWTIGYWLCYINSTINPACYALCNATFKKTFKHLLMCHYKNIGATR
The test can be described thus: Inhibitory constant by the inhibition of [3H]N-methylscopolamine (NMS) binding to Muscarinic acetylcholine receptor M2 of rat heart.

For `O=C1Nc2cccnc2N(C(=O)CN2CCN(CCCCCCCCCCNC(=S)Nc3cccc(N=C=S)c3)CC2)c2ccccc21`, the Reduction in test [1] turned out to be 76%. This compound had an IC50 in test [2] of 0.15 nM.

`O=C1Nc2cccnc2N(C(=O)CN2CCN(CCCCCCCCCNC(=S)Nc3cccc(N=C=S)c3)CC2)c2ccccc21` returned a Reduction in test [1] of 48.7%.

Take `O=C1Nc2cccnc2N(C(=O)CN2CCN(CCCCCCCCNC(=S)Nc3cccc(N=C=S)c3)CC2)c2ccccc21`: the Reduction in test [1] was found to be 51.1%.

For the compound `Cc1scc2c1N(C(=O)CN1CCN(CCCCCCCCCCN)CC1)c1ccccc1NC2=O`, the affinity in test [3], expressed as Ki, was 3.7 nM.
